Like-named read-outs stand apart in the source and are kept apart here.
Assays:
CbcXWV from B728a = format: cell-based, Pseudomonas syringae pv. syringae; details: Acella, pET-cbcB728a; 1 mM IPTG; substrate 1 mM; single colony
[1] = system: P. syringae BT-derived mutants; format: cell-based, Pseudomonas syringae pv. syringae; details: pN, substrate 10 μM
CbcX with CbcWV = CbcX with CbcWV (Pseudomonas aeruginosa, UniProt Q9HTI6); experiment: Competitive uptake, MKH13 expressing cbcXWV; format: cell-based; details: MKH13, pNcbcXWV, SBP CbcX, competitor 1 mM
[2] = system: S. meliloti Cho transporter ChoXWV; format: cell-based, Sinorhizobium meliloti; details: MKH13; pNchoXWV, Plasmid 2 None; SBP ChoX; substrate 10 μM; single replication
[3] = system: E. coli strains MKH13 and Acella; experiment: Total uptake by E. coli strains carrying empty vector; format: cell-based, Escherichia coli
[4] = system: S. meliloti ChoXWV transporter; format: cell-based, Sinorhizobium meliloti; details: substrate 10 μM
CbcWV with CaiXPAO1 = format: cell-based, Pseudomonas aeruginosa; details: MKH13; pNcbcWV, pT-PA5388; SBP CaiXPAO1; substrate 10 μM; single replication
ChoXWV = molecular target: T1, ChoXWV (Sinorhizobium meliloti, UniProt Q92N37); experiment: Competitive uptake, MKH13 expressing choXWV; format: cell-based; details: pNchoXWV, SBP ChoX, [^14C]choline 10 μM, competitor 1 mM
T1 sequence (Q92N37 28-318): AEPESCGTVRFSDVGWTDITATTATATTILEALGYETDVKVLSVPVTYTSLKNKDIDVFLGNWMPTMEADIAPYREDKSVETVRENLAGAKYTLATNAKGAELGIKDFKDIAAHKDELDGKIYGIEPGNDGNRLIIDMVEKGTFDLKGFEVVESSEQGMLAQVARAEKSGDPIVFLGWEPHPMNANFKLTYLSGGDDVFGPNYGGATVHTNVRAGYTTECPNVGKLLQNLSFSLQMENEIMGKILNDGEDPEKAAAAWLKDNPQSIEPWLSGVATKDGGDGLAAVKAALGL
T1 sequence (Q92N36 1-281 partner): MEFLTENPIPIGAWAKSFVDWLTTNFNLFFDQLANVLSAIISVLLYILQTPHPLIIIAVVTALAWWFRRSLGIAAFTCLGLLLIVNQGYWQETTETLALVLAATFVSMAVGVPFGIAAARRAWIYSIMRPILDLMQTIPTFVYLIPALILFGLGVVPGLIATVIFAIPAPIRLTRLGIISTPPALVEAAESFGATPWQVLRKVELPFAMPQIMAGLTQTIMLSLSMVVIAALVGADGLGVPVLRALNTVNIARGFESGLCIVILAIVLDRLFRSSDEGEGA
T1 sequence (Q92N35 1-349 partner): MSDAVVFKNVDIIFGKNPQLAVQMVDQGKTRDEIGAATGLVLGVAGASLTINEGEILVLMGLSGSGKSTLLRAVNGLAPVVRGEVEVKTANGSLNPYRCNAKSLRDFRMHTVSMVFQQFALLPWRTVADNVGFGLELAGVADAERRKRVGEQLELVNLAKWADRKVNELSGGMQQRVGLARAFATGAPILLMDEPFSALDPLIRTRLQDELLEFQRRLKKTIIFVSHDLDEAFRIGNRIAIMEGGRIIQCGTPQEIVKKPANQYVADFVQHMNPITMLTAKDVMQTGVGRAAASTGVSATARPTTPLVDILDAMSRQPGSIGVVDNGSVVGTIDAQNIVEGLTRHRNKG

CbcX and CaiX with CbcWV = format: cell-based, Pseudomonas aeruginosa; details: MKH13, pNcbcXWV, pT-PA5388, SBPs CbcX/CaiX, competitor 1 mM
CbcWV with BetXDC3000 = format: cell-based, Pseudomonas syringae pv. tomato; details: MKH13; pNcbcWV, pT-D3758; SBP BetXDC3000; substrate 10 μM; single replication
[5] = system: cbcXWV from PAO1 in QAC transporter-deficient BT strain; format: cell-based, Pseudomonas aeruginosa; details: BT(pCbcPAO1), unlabelled competitor 0.5 mM, 10 min
CbcWV with BetXB728a = format: cell-based, Pseudomonas syringae pv. syringae; details: MKH13; pNcbcWV, pT-B3758; SBP BetXB728a; substrate 10 μM; single replication
CaiX with CbcWV = format: cell-based, Pseudomonas aeruginosa; details: MKH13; pNcbcWV, pT-PA5388; SBP CaiX; [^14C]carnitine 10 μM; competitor 1 mM
[6] = system: Cbc core transporter CbcWV; format: cell-based, Pseudomonas aeruginosa; details: MKH13, pNcbcWV, SBP None, substrate 10 μM, single replication
[7] = system: cbcXWV from B728a in QAC transporter-deficient BT strain; format: cell-based, Pseudomonas syringae pv. syringae; details: BT(pCbcB728a), unlabelled competitor 0.5 mM, 10 min
CbcWV with BetXPAO1 = format: cell-based, Pseudomonas aeruginosa; details: MKH13; pNcbcWV, pT-PA3236; SBP BetXPAO1; substrate 10 μM; single replication
[8] = system: CbcXWV from P. aeruginosa PAO1; format: cell-based, Pseudomonas aeruginosa; details: MKH13, pCbcPAO1; radiolabelled substrate 1 mM; mean (SE), n = 10
CbcXWV from DC3000 = format: cell-based, Pseudomonas syringae pv. tomato; details: Acella, pET-cbcDC3000; 1 mM IPTG; substrate 1 mM; mean (SE), n = 10
[9] = host BT2916Ko, single replication
[10] = Acella, pET15b, 1 mM IPTG, substrate 1 mM, single colony
[11] = MKH13, pME6041, radiolabelled substrate 1 mM, mean (SE), n = 10
[12] = pNchoXW, host BT0028Ko, mean (SE), n = 2
[13] = pNchoXW, host BT3758Ko, mean (SE), n = 3
[14] = pNchoXWV, host BT2916Ko, single replication

C[N+](C)(C)CC(=O)O [Betaine, glycine betaine]
Total uptake (CbcXWV from B728a): 16.2 nmol (mg protein)^−1 | Total uptake ([1]; host BT0028Ko): 0.0 nmol (mg protein)^−1 | Total uptake [1, 9]: 0.0 nmol (mg protein)^−1 | Total uptake ([1]; host BT3758Ko): 0.0 nmol (mg protein)^−1 | % inhibition of uptake of substrate by unlabelled competitor (CbcX with CbcWV; [^14C]betaine 10 μM): 87% | % inhibition of uptake of substrate by unlabelled competitor (CbcX with CbcWV; [^14C]choline 10 μM): not inhibited | % inhibition of uptake of substrate by unlabelled competitor (CbcX with CbcWV; [^14C]choline 10 μM, listed as Bet): 2% | Total uptake [2]: 2.7 nmol (mg protein)^−1 | Total uptake [3, 10]: 8.2 nmol (mg protein)^−1 | Total uptake [3, 11]: 0.5 (0.5) nmol (mg protein)^−1 | Total uptake [4, 12]: 2.8 (0.3) nmol (mg protein)^−1 | Total uptake [4, 13]: 3.0 (0.64) nmol (mg protein)^−1 | Total uptake [4, 14]: 3.0 nmol (mg protein)^−1 | Total uptake (CbcWV with CaiXPAO1): 0 nmol (mg protein)^−1 | % inhibition of uptake of substrate by unlabelled competitor (ChoXWV): 3% | % inhibition of uptake of substrate by unlabelled competitor (CbcX and CaiX with CbcWV; [^14C]betaine 10 μM): 88% | % inhibition of uptake of substrate by unlabelled competitor (CbcX and CaiX with CbcWV; [^14C]choline 10 μM): −1% | Total uptake (CbcWV with BetXDC3000): 6.1 nmol (mg protein)^−1 | % inhibition of uptake of [^14C]substrate ([5]; [^14C]betaine 5 μM): 83% | % inhibition of uptake of [^14C]substrate ([5]; [^14C]carnitine 5 μM): 84% | % inhibition of uptake of [^14C]substrate ([5]; [^14C]choline 5 μM): 9% | Total uptake (CbcWV with BetXB728a): 11.9 nmol (mg protein)^−1 | % inhibition of uptake of substrate by unlabelled competitor (CaiX with CbcWV): 5% | Total uptake ([6]; Plasmid 2 None): 0 nmol (mg protein)^−1 | Total uptake ([6]; pTOK2T): 0 nmol (mg protein)^−1 | % inhibition of uptake of [^14C]substrate ([7]; [^14C]betaine 5 μM): 93% | % inhibition of uptake of [^14C]substrate ([7]; [^14C]carnitine 5 μM): 83% | % inhibition of uptake of [^14C]substrate ([7]; [^14C]choline 5 μM): 19% | Total uptake (CbcWV with BetXPAO1): 21.6 nmol (mg protein)^−1 | Total uptake [8]: 5.8 (1.1) nmol (mg protein)^−1 | Total uptake (CbcXWV from DC3000): 17.0 (1.8) nmol (mg protein)^−1

C[N+](C)(C)C[C@H](O)CC(=O)[O-] [Carnitine, L-carnitine]
Total uptake (CbcXWV from B728a): 0 nmol (mg protein)^−1 | Total uptake ([1]; host BT0028Ko): 0.0 nmol (mg protein)^−1 | Total uptake [1, 9]: 0.1 nmol (mg protein)^−1 | Total uptake ([1]; host BT3758Ko): 0.0 nmol (mg protein)^−1 | % inhibition of uptake of substrate by unlabelled competitor (CbcX with CbcWV; [^14C]betaine 10 μM): 3% | % inhibition of uptake of substrate by unlabelled competitor (CbcX with CbcWV; [^14C]choline 10 μM): 6% | Total uptake [2]: 0 nmol (mg protein)^−1 | Total uptake [3, 10]: 0 nmol (mg protein)^−1 | Total uptake [3, 11]: 0.5 (0.3) nmol (mg protein)^−1 | Total uptake [4, 12]: 1.2 (0.1) nmol (mg protein)^−1 | Total uptake [4, 13]: 1.8 (0.4) nmol (mg protein)^−1 | Total uptake [4, 14]: 0.1 nmol (mg protein)^−1 | Total uptake (CbcWV with CaiXPAO1): 3.8 nmol (mg protein)^−1 | % inhibition of uptake of substrate by unlabelled competitor (ChoXWV): 41% | % inhibition of uptake of substrate by unlabelled competitor (CbcX and CaiX with CbcWV; [^14C]betaine 10 μM): 10% | % inhibition of uptake of substrate by unlabelled competitor (CbcX and CaiX with CbcWV; [^14C]choline 10 μM): −2% | Total uptake (CbcWV with BetXDC3000): 0 nmol (mg protein)^−1 | % inhibition of uptake of [^14C]substrate ([5]; [^14C]betaine 5 μM): 2% | % inhibition of uptake of [^14C]substrate ([5]; [^14C]carnitine 5 μM): 94% | % inhibition of uptake of [^14C]substrate ([5]; [^14C]choline 5 μM): 1% | Total uptake (CbcWV with BetXB728a): 0 nmol (mg protein)^−1 | % inhibition of uptake of substrate by unlabelled competitor (CaiX with CbcWV): 91% | Total uptake ([6]; Plasmid 2 None): 0 nmol (mg protein)^−1 | Total uptake ([6]; pTOK2T): 0 nmol (mg protein)^−1 | % inhibition of uptake of [^14C]substrate ([7]; [^14C]betaine 5 μM): 5% | % inhibition of uptake of [^14C]substrate ([7]; [^14C]carnitine 5 μM): 93% | % inhibition of uptake of [^14C]substrate ([7]; [^14C]choline 5 μM): 5% | Total uptake (CbcWV with BetXPAO1): 0 nmol (mg protein)^−1 | Total uptake [8]: 0.8 (0.4) nmol (mg protein)^−1 | Total uptake (CbcXWV from DC3000): 0.59 (0.82) nmol (mg protein)^−1

Source: article PMC5503199 (Molecular microbiology, 2009)
